# Measurements taken from patent US20180098969A1, “HODGKIN LYMPHOMA THERAPY” (Purdue Pharmaceutical Products L.P., priority 2016, published 2018).
# Experiments:
# [1] = tested on: relapsed-refractory Hodgkin lymphoma; details: in vivo; cited from earlier work
# [2] = tested on: non-resistant L1236 Hodgkin lymphoma cell lines; test: Viable cell count and IC50, non-resistant lines; format: cell-based, human; details: FIG. 6B
# Protocol: (b) The bendamustine-resistant Hodgkin lymphoma cell line L1236-R100, non-resistant L1236 Hodgkin lymphoma cell line cultured in DMSO L1236/DMSO and L1236 was cultured in the presence of EDO-S101 dissolved in DMSO at concentrations of 0.78 μM, 1.56 μM, 3.12 μM, 6.25 μM and 12.5 μM. Control cells were cultured in the same final concentration of DMSO. The number of viable cells was assessed at 24, 48 and 72 hours through a Countess™ automated cell counter (Invitrogen), each experiment being repeated three times and the results given being the mean of the three results ±SD.
compound,measurement,setting,value
Cn1c(CCCC(=O)O)nc2cc(N(CCCl)CCCl)ccc21 [bendamustine],relapsed/refractory Hodgkin lymphoma patients resistant,[1],about 40%
same,IC50,[2],high IC50 values
